Measured values as given in publication PMC9977398, “Next-generation membrane-active glycopeptide antibiotics that also inhibit bacterial cell division” (Chemical Science, 2023).
Like-named read-outs stand apart in the source and are kept apart here.

Columns and labels:
[1] = test system: VRE ATCC 51575; experiment: Activity in blood plasma and liver homogenate; assay type: cell-based, E. faecalis; conditions: for MIC: Enterococcus, VRE ATCC 51575
Procedure: Table S1: Activity of VanQAmC10 in mouse plasma and liver homogenate against MRSA […]
MIC of VanQAmC10 post incubation in (μM) […]
Activity in blood plasma and liver homogenate
To examine the susceptibility of VanQAmC10 to serum proteases, the antibacterial activities was tested in the presence of 50% of plasma and liver homogenate. Briefly, 250 μL of VanQAmC10 was added into 250 μL of fresh […] plasma and incubated at 37 °C. An aliquot of the samples 3 h and 24h post-incubation was diluted in 0.9% saline and the antibacterial activity (MIC) were determined against MRSA and VRE by following the same protocol as described above for the antibacterial assay. […]
50 μL of ∼10^6 CFU/mL bacterial inoculum (MRSA ATCC33591) was injected into the thigh. 1 h post-inoculation, animals were treated intraperitoneally twice with 12 h intervals with saline, vancomycin (12 mg kg−1), and VanQAmC10 (12 mg kg−1). 24 h post the first treatment, the animals were euthanized (using ether) and the thighs were collected aseptically. The thigh tissue was weighed and homogenized. The dilutions of the homogenate were plated onto agar plates, which were incubated overnight at about 37 °C. […]
In-vivo activity in murine burn wound infectionmodel 10-12

[2] = test system: RAW 264.7 cells; parameters: method as in PMID 32195571; conditions: cited from earlier work
[3] = test system: MDCK cells; assay type: cell-based; conditions: 24 h, Alamar blue
Procedure: acid group of vancomycin to yield the compounds 1-10. All the derivatives of vancomycin were purified by reverse phase HPLC to about 90 % purity with 65-75 % yield and characterized by HR-MS and 1H-NMR.
Figure S1. Cytotoxicity of VanQAmC10 against MDCK cells. The CC50 (defined as the concentration at which the viability of compound treated cells reduced to 50%) was greater […]
(1 picture or pasted object on this page, not shown here)
50 μL of serially diluted compound was added into 96 well microtiter plates. Freshly drawn, heparanized human blood was centrifuged down to obtain the erythrocytes and re-suspended to 5 vol % in PBS (pH 7.4). […] 100 μL of the supernatant from each well were transferred into fresh microtiter plates, and A540 was measured.
% haemolysis = (A - A0)/(Atotal -A0) × 100, where A is the absorbance of the test well, A 0 the absorbance of the negative controls (without compound), and A total the absorbance of 100 % hemolysis wells (with Triton X -100), all at 540 nm. […]
2 h post incubation with dye, the absorbance was measured at 570 nm using 600 nm as […]
The bactericidal activity of the compounds was evaluated with the time kill kinetics assay.
MRSA ATCC 33591 cells were cultured in nutrient media at 37°C for 6 h. […] The bacterial colonies were counted and results are represented in logarithmic scale, i.e. log10 (CFU/mL). […]

[4] = test system: VRE 51575 (vancomycin-resistant E. faecalis, VanB phenotype, ATCC 51575); parameters: method as in PMID 32195571; conditions: previously reported; cited from earlier work
[5] = test system: VRSA; experiment: MIC against VRSA (strain not specified / strains taken together); assay type: cell-based, S. aureus; conditions: ratio of MICs
Procedure: The increase in the carbon content of substituted moieties from six (1) to seven (2 and 3) to ten (5) to twelve (4), increased activity.
VanQAmC14 (10): Yield 65%; HPLC purity 96%; 1H-NMR (400 MHz, DMSO-d6) δ/ppm:
Test compound was assayed in a micro -dilution broth format as per the CLSI guideline. The bacterial freeze dried stock samples were stored at -80 °C. About 5 μL of these stocks were added to 3 mL of the respective broth and the culture was grown for 6 h at 37°C with prior to the experiments. This 6 h grown culture was diluted to give effective cell concentration of 10 5 CFU/mL which was then used for determining MIC. Compounds were serially diluted 2 -fold, in sterile millipore water and 50 μL of these serial dilutions were added to the wells of 96 well plate followed by the addition of about 150 μL of bacterial solution. The plates were then incubated for 18-24 h at 37 °C. The O.D. value at 600 nm was recorded using TECAN (Infinite series, M200 pro) Plate Reade r. Each concentration had triplicate values and the whole experiment was done at least twice and the MIC value was determined by taking the average of triplicate O. D. values for each concentration and plotting it against concentration. The data was then subjected to sigmoidal fitting. From the curve the MIC value was determined, as the point where the O. D. was similar to that of control having no bacteria.

| Structure (SMILES) | MIC ([1]; 50% plasma, 37 °C, read-out: MIC post incubation in plasma) [µM] | MIC ([1]; read-out: MIC post incubation in liver homogenate) [µM] | MIC ([1]; read-out: MIC post incubation in media) [µM] | change of MIC in plasma and liver homogenate ([1]; VRE) | concentration up to which non-toxic [2] [µM] | CC50 [3] [µM] | Minimum inhibitory concentration, VRE 51575 [4] [µM] | fold increase in activity as compared to vancomycin against VRSA [5] [fold] |
| --- | --- | --- | --- | --- | --- | --- | --- | --- |
| CCCCCCCCCCNC(=O)C[N+](C)(C)CCCNC(=O)C1NC(=O)C2NC(=O)C(NC(=O)C3NC(=O)C(CC(N)=O)NC(=O)C(NC(=O)C(CC(C)C)NC)C(O)c4ccc(c(Cl)c4)Oc4cc3cc(c4OC3OC(CO)C(O)C(O)C3OC3CC(C)(N)C(O)C(C)O3)Oc3ccc(cc3Cl)C2O)c2ccc(O)c(c2)-c2c(O)cc(O)cc21 (centres unmarked) [VanQAmC10 (8)] | 4 | 4 | 4 | remained unchanged | 40 | > 64 | 4 | – |
| CNC(CC(C)C)C(=O)NC1C(=O)NC(CC(N)=O)C(=O)NC2C(=O)NC3C(=O)NC(C(=O)NC(C(=O)NCCC[N+](C)(C)Cc4ccc(-c5ccccc5)cc4)c4cc(O)cc(O)c4-c4cc3ccc4O)C(O)c3ccc(c(Cl)c3)Oc3cc2cc(c3OC2OC(CO)C(O)C(O)C2OC2CC(C)(N)C(O)C(C)O2)Oc2ccc(cc2Cl)C1O (centres unmarked) [VanQbiph (4)] | – | – | – | – | – | – | – | 22 to 88 |
